The values that follow come from ChEMBL document CHEMBL1909046, “DrugMatrix in vitro pharmacology data”.

In one experiment the target is Substance-P receptor (Homo sapiens, UniProt P25103). It counts as cell membranes, CHO, Membrane. Note: in other assays of this panel Not Active means under 50% inhibition at 10 µM.
Experiment [1] addresses T1, Cholecystokinin receptor type A (Homo sapiens, UniProt P32238).
T1 sequence (P32238 whole entry): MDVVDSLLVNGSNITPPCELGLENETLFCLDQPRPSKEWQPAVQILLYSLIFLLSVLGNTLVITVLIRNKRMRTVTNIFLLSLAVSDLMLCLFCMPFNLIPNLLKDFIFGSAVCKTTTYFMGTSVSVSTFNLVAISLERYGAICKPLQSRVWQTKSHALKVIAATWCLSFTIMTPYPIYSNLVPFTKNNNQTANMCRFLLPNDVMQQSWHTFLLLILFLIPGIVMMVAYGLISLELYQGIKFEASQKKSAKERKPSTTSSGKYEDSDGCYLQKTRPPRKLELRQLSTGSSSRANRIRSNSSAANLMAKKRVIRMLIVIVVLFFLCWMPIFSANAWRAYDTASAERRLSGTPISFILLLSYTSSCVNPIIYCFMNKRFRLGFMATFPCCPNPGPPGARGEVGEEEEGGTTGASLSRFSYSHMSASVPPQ
The class given is cell membranes, Membrane. Conditions: 1321-n1.

The target in experiment [2] is T2, Neuropeptide Y receptor type 2 (Homo sapiens, UniProt P49146). Note: in other assays of this panel Not Active means under 50% inhibition at 10 µM.
T2 sequence (P49146 whole entry): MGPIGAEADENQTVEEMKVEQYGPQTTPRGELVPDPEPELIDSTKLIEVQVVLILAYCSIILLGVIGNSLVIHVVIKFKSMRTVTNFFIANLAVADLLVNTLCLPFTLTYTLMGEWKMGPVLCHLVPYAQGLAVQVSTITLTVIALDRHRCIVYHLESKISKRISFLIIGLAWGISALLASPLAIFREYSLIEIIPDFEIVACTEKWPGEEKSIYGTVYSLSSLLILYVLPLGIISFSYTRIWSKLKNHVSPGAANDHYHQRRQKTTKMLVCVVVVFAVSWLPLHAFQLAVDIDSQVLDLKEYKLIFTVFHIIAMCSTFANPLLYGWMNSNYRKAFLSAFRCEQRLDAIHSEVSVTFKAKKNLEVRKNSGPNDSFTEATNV
It counts as cell membranes, Membrane. Conditions: kan-ts.

A further experiment has as its target Melanocortin receptor 5 (Homo sapiens, UniProt P33032). The class given is cell membranes, HEK293, Membrane. Note: in other assays of this panel Not Active means under 50% inhibition at 10 µM.
For experiment [3], the target named is T3, Vasoactive intestinal polypeptide receptor 1 (Homo sapiens, UniProt P32241). Note: in other assays of this panel Not Active means under 50% inhibition at 10 µM.
T3 sequence (P32241 whole entry): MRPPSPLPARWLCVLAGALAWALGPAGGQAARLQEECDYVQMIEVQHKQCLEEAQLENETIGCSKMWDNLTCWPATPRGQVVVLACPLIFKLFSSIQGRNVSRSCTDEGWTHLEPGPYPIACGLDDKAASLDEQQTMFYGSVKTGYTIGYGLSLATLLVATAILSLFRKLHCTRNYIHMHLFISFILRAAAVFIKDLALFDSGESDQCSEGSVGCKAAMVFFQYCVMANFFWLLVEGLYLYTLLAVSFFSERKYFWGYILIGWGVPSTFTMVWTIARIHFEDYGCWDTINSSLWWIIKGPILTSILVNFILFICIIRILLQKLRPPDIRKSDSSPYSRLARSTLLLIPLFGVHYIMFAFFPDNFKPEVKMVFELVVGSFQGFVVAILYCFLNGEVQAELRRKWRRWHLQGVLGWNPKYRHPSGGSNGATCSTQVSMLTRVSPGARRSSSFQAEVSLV
The class given is cell membranes, Membrane. Conditions: ht-29.

Experiment [4] deals with Epidermal growth factor receptor (Homo sapiens, UniProt P00533). Kind of experiment: DRUGMATRIX: Protein Tyrosine Kinase, EGF Receptor enzyme inhibition (substrate: Poly(Glu:Tyr)). Conditions: Not Active = under 50% inhibition at 10 µM. It counts as cell-based, Insect cells.

Sequence of Melanocortin receptor 5 (P33032 whole entry): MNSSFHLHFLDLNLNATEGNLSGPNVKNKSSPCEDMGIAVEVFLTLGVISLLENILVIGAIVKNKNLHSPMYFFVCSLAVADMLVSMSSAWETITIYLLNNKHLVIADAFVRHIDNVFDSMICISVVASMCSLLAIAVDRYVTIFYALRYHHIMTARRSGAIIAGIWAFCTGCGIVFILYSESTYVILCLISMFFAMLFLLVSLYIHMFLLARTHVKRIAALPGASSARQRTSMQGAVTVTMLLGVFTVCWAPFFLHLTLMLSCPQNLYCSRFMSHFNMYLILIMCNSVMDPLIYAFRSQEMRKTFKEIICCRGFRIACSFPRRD
Sequence of Substance-P receptor (P25103 whole entry): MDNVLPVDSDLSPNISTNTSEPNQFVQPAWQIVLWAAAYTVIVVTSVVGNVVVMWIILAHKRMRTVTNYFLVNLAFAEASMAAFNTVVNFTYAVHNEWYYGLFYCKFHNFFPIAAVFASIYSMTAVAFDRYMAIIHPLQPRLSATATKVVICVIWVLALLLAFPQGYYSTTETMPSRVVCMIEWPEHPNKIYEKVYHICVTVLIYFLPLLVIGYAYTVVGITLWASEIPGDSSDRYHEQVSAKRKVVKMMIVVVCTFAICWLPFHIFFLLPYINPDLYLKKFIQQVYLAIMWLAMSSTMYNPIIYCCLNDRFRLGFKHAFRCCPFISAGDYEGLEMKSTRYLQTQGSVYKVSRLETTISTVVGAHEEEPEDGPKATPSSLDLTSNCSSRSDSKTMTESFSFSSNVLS

In general, IC50 refers to the concentration that gives 50% inhibition. Turning to `Nc1nc2nc[nH]c2c(=S)[nH]1` [THIOGUANINE], the 50% inhibitory concentration (IC50) result (against Substance-P receptor (cho); in experiment [1]; in experiment [2]; against Melanocortin receptor 5 (hek293); in experiment [3]; in experiment [4] (insect cells)) was “Not Active” in each case.

In the case of `Cc1c(C)c2c(c(C)c1O)CCC(C)(COc1ccc(CC3SC(=O)NC3=O)cc1)O2` (configuration not stated) [TROGLITAZONE], the IC50 result (at Substance-P receptor (cho); in experiment [1]; in experiment [2]; on Melanocortin receptor 5 (hek293); in experiment [3]; in experiment [4] (insect cells)) was “Not Active” each time.

In the case of `Cc1nc2n(c(=O)c1CCN1CCC(c3noc4cc(F)ccc34)CC1)CCCC2` [RISPERIDONE], the concentration for half-maximal inhibition (IC50) entry (against Substance-P receptor (cho); in experiment [1]; in experiment [2]; on Melanocortin receptor 5 (hek293); in experiment [3]; in experiment [4] (insect cells)) was “Not Active” throughout.

As for `COc1nc(C)nc(Cl)c1NC1=NCCN1` [MOXONIDINE], the IC50 result (against Substance-P receptor (cho); in experiment [1]; in experiment [2]; at Melanocortin receptor 5 (hek293); in experiment [3]; in experiment [4] (insect cells)) was “Not Active” in each case.

For `N[C@@H](Cc1cc(I)c(Oc2ccc(O)c(I)c2)c(I)c1)C(=O)O` [LIOTHYRONINE], the half-inhibitory concentration (IC50) result (on Substance-P receptor (cho); in experiment [1]; in experiment [2]; against Melanocortin receptor 5 (hek293); in experiment [3]; in experiment [4] (insect cells)) was “Not Active” each time.

On to `OCCN(CCO)c1nc(N2CCCCC2)c2nc(N(CCO)CCO)nc(N3CCCCC3)c2n1` [DIPYRIDAMOLE], for which the 50% inhibitory concentration (IC50) entry (on Substance-P receptor (cho); in experiment [1]; in experiment [2]; on Melanocortin receptor 5 (hek293); in experiment [3]; in experiment [4] (insect cells)) was “Not Active” in each case.

Regarding `O=NN(CCCl)C(=O)NC1CCCCC1` [LOMUSTINE], the 50% inhibitory concentration (IC50) entry (at Substance-P receptor (cho); in experiment [1]; in experiment [2]; against Melanocortin receptor 5 (hek293); in experiment [3]; in experiment [4] (insect cells)) was “Not Active” throughout.

For `O=c1ncn2nc(Sc3ccc(F)cc3F)ccc2c1-c1c(Cl)cccc1Cl` [NEFLAMAPIMOD], the half-inhibitory concentration (IC50) entry (on Substance-P receptor (cho); in experiment [1]; in experiment [2]; against Melanocortin receptor 5 (hek293); in experiment [3]; in experiment [4] (insect cells)) was “Not Active” each time.

In the case of `CC[C@]1(O)C[C@H]2CN(CCc3c([nH]c4ccccc34)[C@@](C(=O)OC)(c3cc4c(cc3OC)N(C=O)[C@H]3[C@@](O)(C(=O)OC)[C@H](OC(C)=O)[C@]5(CC)C=CCN6CC[C@]43[C@@H]65)C2)C1` [VINCRISTINE], the half-inhibitory concentration (IC50) entry (against Substance-P receptor (cho); in experiment [1]; in experiment [2]; against Melanocortin receptor 5 (hek293); in experiment [3]; in experiment [4] (insect cells)) was “Not Active” in each case.

As for `CSc1ccc(/C=C2/C(C)=C(CC(=O)O)c3cc(F)ccc32)cc1` [SULINDAC SULFIDE], the concentration for half-maximal inhibition (IC50) result at Substance-P receptor (cho) was “Not Active”; in experiment [1] it was “Not Active”; in experiment [2], “Not Active”; on Melanocortin receptor 5 (hek293) it was “Not Active”; in experiment [3] it was “Not Active”; in experiment [4] (read-out: IC50), 24 µM.

As to `CC(=O)[C@@]1(O)CC[C@H]2[C@@H]3C[C@H](C)C4=CC(=O)CC[C@]4(C)[C@H]3CC[C@@]21C`, the IC50 result (against Substance-P receptor (cho); in experiment [1]; in experiment [2]; at Melanocortin receptor 5 (hek293); in experiment [3]; in experiment [4] (insect cells)) was “Not Active” each time.

For `Cc1noc(NS(=O)(=O)c2ccc(N)cc2)c1C` [SULFISOXAZOLE], the IC50 result (on Substance-P receptor (cho); in experiment [1]; in experiment [2]; against Melanocortin receptor 5 (hek293); in experiment [3]; in experiment [4] (insect cells)) was “Not Active” throughout.

The Ki is the dissociation constant of the complex between target and ligand, obtained from inhibition or displacement. For the molecule `CCCCc1oc2ccccc2c1C(=O)c1cc(I)c(OCCN(CC)CC)c(I)c1` [AMIODARONE], the concentration for half-maximal inhibition (IC50) result was “Not Active” against Substance-P receptor (cho); “Not Active” in experiment [1]; “Not Active” in experiment [2]; 9.5 µM on Melanocortin receptor 5 (read-out: IC50); “Not Active” in experiment [3]; “Not Active” in experiment [4] (insect cells). Also, the Ki at Melanocortin receptor 5 (read-out: Ki) amounted to 8.91 µM.

`N[C@@H](Cc1ccc(O)c(O)c1)C(=O)O` [LEVODOPA]: the concentration for half-maximal inhibition (IC50) entry at Substance-P receptor (cho) was “Not Active”; in experiment [1], “Not Active”; in experiment [2], “Not Active”; against Melanocortin receptor 5 (hek293) it was “Not Active”; in experiment [3], “Not Active”; in experiment [4] (read-out: IC50) it was 2.88 µM.

As to `NS(=O)(=O)c1cc2c(cc1Cl)NC(C(Cl)Cl)NS2(=O)=O` (configuration not stated) [TRICHLORMETHIAZIDE], the half-maximal inhibitory concentration (IC50) result (on Substance-P receptor (cho); in experiment [1]; in experiment [2]; at Melanocortin receptor 5 (hek293); in experiment [3]; in experiment [4] (insect cells)) was “Not Active” in each case.

`Nc1c2c(nc3ccccc13)CCCC2` [TACRINE]: the IC50 result (against Substance-P receptor (cho); in experiment [1]; in experiment [2]; against Melanocortin receptor 5 (hek293); in experiment [3]; in experiment [4] (insect cells)) was “Not Active” in each case.

For `NC[C@H]1CC[C@H](C(=O)O)CC1` [TRANEXAMIC ACID], the IC50 result (at Substance-P receptor (cho); in experiment [1]; in experiment [2]; against Melanocortin receptor 5 (hek293); in experiment [3]; in experiment [4] (insect cells)) was “Not Active” each time.

As to `CCOC(=O)N1CCC(=C2c3ccc(Cl)cc3CCc3cccnc32)CC1` [LORATADINE], the IC50 entry (against Substance-P receptor (cho); in experiment [1]; in experiment [2]; against Melanocortin receptor 5 (hek293); in experiment [3]; in experiment [4] (insect cells)) was “Not Active” in each case.

As for `c1ccc([C@H]2CN3CCSC3=N2)cc1` [LEVAMISOLE], the IC50 result (against Substance-P receptor (cho); in experiment [1]; in experiment [2]; at Melanocortin receptor 5 (hek293); in experiment [3]; in experiment [4] (insect cells)) was “Not Active” throughout.

In the case of `CC(C)N1CCN(c2ccc(OCC3COC(Cn4cncn4)(c4ccc(Cl)cc4Cl)O3)cc2)CC1` (configuration not stated) [TERCONAZOLE], the concentration for half-maximal inhibition (IC50) entry (against Substance-P receptor (cho); in experiment [1]; in experiment [2]; at Melanocortin receptor 5 (hek293); in experiment [3]; in experiment [4] (insect cells)) was “Not Active” each time.

As for `CC[C@@H](CO)NC(=O)[C@@H]1C=C2c3cccc4[nH]cc(c34)C[C@H]2N(C)C1` [METHYLERGONOVINE], the 50% inhibitory concentration (IC50) entry (on Substance-P receptor (cho); in experiment [1]; in experiment [2]; on Melanocortin receptor 5 (hek293); in experiment [3]; in experiment [4] (insect cells)) was “Not Active” throughout.

Consider `CC/C(=C(\c1ccccc1)c1ccc(OCCN(C)C)cc1)c1ccccc1` [TAMOXIFEN], for which the IC50 on Substance-P receptor (read-out: IC50) is 15.7 µM; in experiment [1] it was “Not Active”; in experiment [2], “Not Active”; on Melanocortin receptor 5 (read-out: IC50), 26.5 µM; in experiment [3], “Not Active”; in experiment [4] (read-out: IC50) it was 3.55 µM. The inhibition constant (Ki) stood at 8.54 µM at Substance-P receptor (read-out: Ki) and 24.9 µM on Melanocortin receptor 5 (read-out: Ki).

As for SODIUM NITROPRUSSIDE, the IC50 result (against Substance-P receptor (cho); in experiment [1]; in experiment [2]; against Melanocortin receptor 5 (hek293); in experiment [3]; in experiment [4] (insect cells)) was “Not Active” throughout. Also, the Ki result (on Substance-P receptor (cho); in experiment [1]; in experiment [2]; on Melanocortin receptor 5 (hek293); in experiment [3]; in experiment [4] (insect cells)) was “Not Active” throughout.
